ChEMBL document CHEMBL4715766, “Systemic structure-activity relationship study of phenyl polyyne diols as potential chemopreventive agents” (Bioorg Med Chem Lett, 2016)

Tests used:
[1] = Chemopreventive index, ratio of IC50 for mouse Hepa-1c1c7 cells to drug level required to double NADPH:quinone reductase activity in mouse Hepa-1c1c7 cells
[2] = Cytotoxicity against mouse Hepa1c1c7 cells; format: cell-based; conditions: Hepa-1c1c7
[3] = biological target: NAD(P)H dehydrogenase [quinone] 1 (Mus musculus) (UniProt Q64669); conditions: Hepa1c1c7, filed as activator
Sequence of NAD(P)H dehydrogenase [quinone] 1 (Mus musculus) (Q64669 whole entry): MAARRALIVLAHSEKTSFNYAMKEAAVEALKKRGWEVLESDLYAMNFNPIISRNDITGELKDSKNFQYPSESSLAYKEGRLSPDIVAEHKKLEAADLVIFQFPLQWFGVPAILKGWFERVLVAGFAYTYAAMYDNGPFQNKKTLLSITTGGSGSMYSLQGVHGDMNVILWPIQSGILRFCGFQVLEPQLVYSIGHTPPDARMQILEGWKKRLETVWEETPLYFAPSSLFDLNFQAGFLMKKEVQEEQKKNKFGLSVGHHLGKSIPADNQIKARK
Description: Induction of quinone reductase activity in mouse Hepa1c1c7 cells

Row | Structure (SMILES) | Ratio [1] | IC50 [2] [µM] | CD [3] [µM]
1 | CCCCCC(O)C#CC#CC(O)c1ccc2c(c1)OCO2 (centres undefined) | >28.2 | > 50 | –
2 | C[S+]([O-])CCCCN=C=S (centres undefined) [SULFORAPHANE] | 29.5 | – | 0.5
